In brackets after ≈: the same amount, converted by molar mass.

The test relates to M. tuberculosis H37Rv growth inhibition. In words: Mycobacterium tuberculosis H37Rv growth inhibition, putative kinase inhibitor library, confirmatory dose response (AID 2842).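 Note: bacteria incubated one week before Alamar blue readout.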

Usually IC90 stands for the concentration needed for an effect of 90%. Turning to `Cc1ccc(C)c(-c2nnc(NC(=O)C(C)C)o2)c1`, the IC90 was 6.62 µg/mL (≈ 25.5 µM).
Turning to `O=C(Nc1ncc(Cc2ccc(F)cc2)s1)c1cccc(-n2cnnn2)c1`, the IC90 is 10.2 µg/mL (≈ 26.7 µM).
For the compound `O=C(Nc1nnc(-c2cccs2)o1)C1CCCCC1`, the IC90 is 26.9 µg/mL (≈ 97.1 µM).
In the case of `O=C(Cc1cccc2ccccc12)Nc1nc(-c2ccc(Br)s2)cs1` it was 15.7 µg/mL (≈ 36.5 µM); in that of `COc1cc(C(=O)Nc2nnc(-c3cc(Cl)ccc3Cl)o2)cc(OC)c1OC`, 28.3 µg/mL (≈ 66.7 µM); in that of `O=C(Nc1nnc(-c2ccc(F)cc2)o1)c1cccc([N+](=O)[O-])c1`, 13.2 µg/mL (≈ 40.2 µM).
On to `O=C(Nc1nnc(-c2cc(Cl)ccc2Cl)o1)C1CC1`, for which the concentration for an effect of 90% (IC90) is 7.42 µg/mL (≈ 24.9 µM).
Turning to `O=C(Nc1nnc(-c2ccco2)o1)C1=COCCO1`, the IC90 was 50.9 µg/mL (≈ 193 µM).
Take `C=CCOC(=O)C1=C(C)NC(SCC(=O)OCC)=C(C#N)C1c1cccs1` (stereo unspecified): the IC90 is 4.44 µg/mL (≈ 11 µM).
`CS(=O)(=O)c1ccc(-c2nnc(NC(=O)c3ccc(Cl)s3)o2)cc1`: the IC90 was 1.67 µg/mL (≈ 4.35 µM).
As for `Cc1ccc(C)c(-c2nnc(NC(=O)c3ccccc3)o2)c1`, the IC90 was 24.5 µg/mL (≈ 83.7 µM).
As for `C=CCNC(=S)NNc1ccc([N+](=O)[O-])cc1`, the IC90 was 10 µg/mL (≈ 39.6 µM).
In the case of `CCOC(=O)N1CCN(c2ncnc3c2cnn3-c2ccc(C)c(Cl)c2)CC1`, the IC90 was 12.2 µg/mL (≈ 30.5 µM).
`Cc1ccc2cc(CCNC(=S)NCCn3ccc4ccccc43)c(=O)[nH]c2c1`: the IC90 is 1.26 µg/mL (≈ 3.11 µM).
Take `Cc1cc(NC(=O)CSc2nnc(-c3ccncc3)o2)no1`: the IC90 is 7.04 µg/mL (≈ 22.2 µM).
For the compound `O=C(CCc1ccccc1)Nc1nnc(-c2ccc3c(c2)CCCC3)o1`, the IC90 is 30 µg/mL (≈ 86.2 µM).
Take `CC(C)(C)c1ccc(C(=O)Nc2nnc(-c3cccnc3)o2)cc1`: the IC90 was 0.84 µg/mL (≈ 2.61 µM).
Regarding `O=C(OCn1nnc2ccccc2c1=O)c1cccs1`, the IC90 was 4.31 µg/mL (≈ 15 µM).
As to `O=C(Nc1nnc(-c2ccc(Cl)cc2)o1)c1ccc([N+](=O)[O-])o1`, the concentration for an effect of 90% (IC90) was 0.26 µg/mL (≈ 0.777 µM).
In the case of `O=C(CCOc1ccccc1)Nc1nnc(-c2ccccc2)o1` it was 6.68 µg/mL (≈ 21.6 µM).
In the case of `COc1cc2c(=O)c(C(=O)c3ccc(F)cc3)cn(Cc3ccc(C)cc3)c2cc1OC` it was 7.24 µg/mL (≈ 16.8 µM); in that of `CC(=O)Nc1nnc(-c2cc(C)ccc2C)o1`, 20.2 µg/mL (≈ 87.3 µM).
For `CCOC(=O)c1c(NC(=O)c2cccc3ccccc23)sc2c1CCN(CC)C2`, the IC90 is 5.45 µg/mL (≈ 13.3 µM).
`Cc1ccc(C)c(-c2nnc(NC(=O)c3ccc(S(=O)(=O)N(C)C4CCCCC4)cc3)o2)c1`: the IC90 was 58.3 µg/mL (≈ 124 µM).
Turning to `O=C(OCn1nnc2ccccc2c1=O)c1ccccc1`, the IC90 is 1.41 µg/mL (≈ 5.01 µM).
Take `CCCOc1ccc(S(=O)(=O)Nc2ccc3c(c2)CCC(=O)N3CC)cc1`: the IC90 is 13 µg/mL (≈ 33.5 µM).
In the case of `CCCCc1ccc(NCCn2c(C)c(C)n3c4c(=O)[nH]c(=O)n(C)c4nc23)cc1`, the IC90 is 12.6 µg/mL (≈ 30.8 µM).
For the compound `CC(C)(C)c1ccc(C(=O)Nc2nnc(-c3ccc(S(C)(=O)=O)cc3)o2)cc1`, the IC90 is 24.6 µg/mL (≈ 61.7 µM).
In the case of `O=C(NNc1nc2ccc(Cl)cc2s1)c1nc2ccccc2s1` it was 3.15 µg/mL (≈ 8.73 µM); in that of `O=C(Nc1nnc(-c2ccc(Cl)s2)o1)c1nc2ccccc2s1`, 4.81 µg/mL (≈ 13.3 µM).
Consider `Cc1cc(C)c2nc(NNC(=O)c3ccc(F)cc3)sc2c1`, for which the IC90 was 3.98 µg/mL (≈ 12.6 µM).
In the case of `COc1ccc2nc(N(CCCn3ccnc3)C(=O)c3cccc(OC)c3OC)sc2c1`, the concentration for an effect of 90% (IC90) was 11.3 µg/mL (≈ 24.9 µM).
Consider `O=C(Nc1nnc(-c2ccco2)o1)c1cccc(Oc2ccccc2)c1`, for which the IC90 is 3.31 µg/mL (≈ 9.53 µM).
Take `C/C(=N\NC(=O)c1cc(-c2ccc(Cl)s2)[nH]n1)c1ccco1`: the IC90 is 6.9 µg/mL (≈ 20.6 µM).
`COc1ccc(-c2noc(-c3cc4ccccc4oc3=Nc3ccc(Br)cc3)n2)cc1`: the IC90 was 13.3 µg/mL (≈ 28.1 µM).
In the case of `O=C(CCN1C(=O)c2ccccc2S1(=O)=O)Nc1ccc(Br)cc1`, the IC90 was 17.5 µg/mL (≈ 42.9 µM).
With `Cc1ccc(C(=O)Nc2nnc(-c3cc(C)ccc3C)o2)c(C)c1`, the IC90 is 7.29 µg/mL (≈ 22.7 µM).
The result for `Cc1ccc(C)c(-c2nnc(NC(=O)CCc3ccccc3)o2)c1` reads 10.9 µg/mL (≈ 33.8 µM); that for `COc1cccc2sc(N(CCCn3ccnc3)C(=O)Cc3ccc(F)cc3)nc12`, 3.48 µg/mL (≈ 8.2 µM).
With `O=C(Nc1nnc(-c2ccco2)o1)c1cccc(C(F)(F)F)c1`, the IC90 is under 0.2 µg/mL.
Regarding `CC(=O)Nc1nnc(-c2ccc(C)cc2C)o1`, the IC90 is 23.9 µg/mL (≈ 103 µM).
Take `CCOC(=O)c1sc(NC(=O)CCSc2ccccc2)cc1C`: the IC90 was 0.82 µg/mL (≈ 2.35 µM).
Consider `CN(C)S(=O)(=O)c1ccc(C(=O)Nc2nnc(-c3ccc(Br)cc3)o2)cc1`, for which the IC90 is 6.69 µg/mL (≈ 14.8 µM).
Consider `Cc1cccn2c(=O)c3cc(C(=O)NC(C)c4ccccc4)c(=N)n(C4CCCCC4)c3nc12` (stereo unspecified), for which the IC90 was 3.05 µg/mL (≈ 6.7 µM).
Regarding `Cc1ccc(C2C(C#N)=C(SCC(=O)Nc3cccc(Cl)c3)NC3=C2C(=O)CCC3)o1` (stereo unspecified), the IC90 was 12.1 µg/mL (≈ 26.6 µM).
`O=C(Nc1nnc(-c2ccc3c(c2)CCCC3)o1)c1ccc(F)cc1`: the IC90 was 21.6 µg/mL (≈ 64 µM).
`O=C(Nc1nnc(-c2ccc3c(c2)CCCC3)o1)c1ccc(Cl)cc1Cl`: the IC90 was 0.91 µg/mL (≈ 2.34 µM).
In the case of `Cc1c(C#N)c(N)nc(SCC(=O)c2cc3ccccc3oc2=O)c1C#N`, the IC90 is 0.42 µg/mL (≈ 1.12 µM).
`CSc1ccc2nc(Nc3nnc(-c4ccc5c(c4)OCCO5)o3)sc2c1`: the IC90 is 15.1 µg/mL (≈ 38 µM).
As to `COc1cccc(-c2nnc(NC(=O)c3ccc(Cl)cc3Cl)o2)c1`, the IC90 is 8.25 µg/mL (≈ 22.7 µM).
For the compound `CCc1ccc(Nc2ncnc3c2cnn3-c2ccc(C)cc2C)cc1`, the IC90 was 6.47 µg/mL (≈ 18.8 µM).
